According to PubChem BioAssay (NCI):
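Briefly, cells in 96-well plates were exposed to five compound concentrations for 48 h, and endpoints were estimated by linear interpolation. TGI: total growth inhibition.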

Key:
Test in all cases: growth of human tumour cells (NCI), 48 h
RXF-631 renal = system: RXF-631 renal
SR leukemia = system: SR leukemia
NCI-H226 lung = system: NCI-H226 lung
NCI-H522 lung = system: NCI-H522 lung
786-0 renal = system: 786-0 renal
K-562 leukemia = system: K-562 leukemia
HOP-62 NSCLC = system: HOP-62 NSCLC
UO-31 renal = system: UO-31 renal
SNB-19 CNS = system: SNB-19 CNS
SN12C renal = system: SN12C renal
UACC-257 melanoma = system: UACC-257 melanoma
ACHN renal = system: ACHN renal
NCI-H23 lung = system: NCI-H23 lung
U251 CNS = system: U251 CNS
HCT-116 colon = system: HCT-116 colon
MOLT-4 leukemia = system: MOLT-4 leukemia
KM12 colon = system: KM12 colon
RPMI-8226 leukemia = system: RPMI-8226 leukemia
SW-620 colon = system: SW-620 colon
SF-268 CNS = system: SF-268 CNS
HCC-2998 colon = system: HCC-2998 colon
SK-MEL-5 melanoma = system: SK-MEL-5 melanoma
CAKI-1 renal = system: CAKI-1 renal
OVCAR-8 ovarian = system: OVCAR-8 ovarian
SK-MEL-28 melanoma = system: SK-MEL-28 melanoma
SK-OV-3 ovarian = system: SK-OV-3 ovarian
SF-539 CNS = system: SF-539 CNS
A549 NSCLC = system: A549 NSCLC
HL-60(TB) leukemia = system: HL-60(TB) leukemia
LOX IMVI melanoma = system: LOX IMVI melanoma
RXF 393 renal = system: RXF 393 renal
SK-MEL-2 melanoma = system: SK-MEL-2 melanoma
M19-MEL melanoma = system: M19-MEL melanoma
DMS 273 small cell lung = system: DMS 273 small cell lung
HCT-15 colon = system: HCT-15 colon
COLO 205 colon = system: COLO 205 colon
HOP-18 NSCLC = system: HOP-18 NSCLC
EKVX NSCLC = system: EKVX NSCLC
TK-10 renal = system: TK-10 renal
NCI-H460 lung = system: NCI-H460 lung
UACC-62 melanoma = system: UACC-62 melanoma
OVCAR-3 ovarian = system: OVCAR-3 ovarian
CCRF-CEM leukemia = system: CCRF-CEM leukemia
OVCAR-5 ovarian = system: OVCAR-5 ovarian
M14 melanoma = system: M14 melanoma
SNB-78 CNS = system: SNB-78 CNS
MALME-3M melanoma = system: MALME-3M melanoma
A498 renal = system: A498 renal
SF-295 CNS = system: SF-295 CNS
IGROV1 ovarian = system: IGROV1 ovarian
DMS 114 small cell lung = system: DMS 114 small cell lung
OVCAR-4 ovarian = system: OVCAR-4 ovarian
KM20L2 colon = system: KM20L2 colon
LXFL 529 NSCLC = system: LXFL 529 NSCLC
SNB-75 CNS = system: SNB-75 CNS
DLD-1 colon = system: DLD-1 colon
HT29 colon = system: HT29 colon

Measured: TGI

COC(=O)C(C(=O)C(=O)Nc1nc2ccc([N+](=O)[O-])cc2s1)c1nc2ccc(Cl)cc2[nH]c1=O (configuration not stated)
> 100 µM: all assays above
